Experiment [1] has as its system Smad2/Smad3 phosphorylation. Briefly: Phospho-Smad2/3 Inhibition Assay (western blot), Panc-1. The format is cell-based, human. The following applies: at 10 μM, Panc-1 pancreatic cancer cell line; starred symbols = activation. Summed up:
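Western blotting of lysates (15-50 μg protein) read phosphorylation of Smad2 Ser465/467 and Smad3 Ser423/425. Before lysis, Panc-1 cells got 1 h of 10 ng/ml TGF-b1 following 3 h compound exposure at 37° C (10 μM final, or serial dilutions for IC50, 0.3% DMSO) after overnight 0.5% FBS starvation.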
Background: A western blot detects proteins with antibodies after separation by electrophoresis.

For experiment [2], the system named is MiaPaca-2 (expressing KRAS G12C mutant). The experiment is described as follows: Proliferation Assay (Cell Viability Assay). The class given is cell-based. Particulars: Homo sapiens, MIA PaCa-2. Summed up: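 After 2–4 days' exposure at 37 °C, 5% CO2 to a single 10 μM final concentration or a dilution series (IC50), percent proliferation inhibition was derived from CellTiter 96 Aqueous One viability readings. The medium contained 0.3% DMSO and 10% FBS. KRAS G12C MiaPaca-2 cells were plated at 2000–5000/well the day before.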

Setting [3] is: read-out: Proliferation in MiaPaca-2: IC50.

Structures can show the parent of a compound that is named as a salt. Where two headings read alike, the source gives them in different places.

With `Cc1c(-c2ccn(C)n2)cn2nc(-c3nccn3C)nc(Nc3cc4n(n3)CCC4)c12` [Compound 100, N-(5,6-Dihydro-4H-pyrrolo[1,2-b]pyrazol-2-yl)-5-methyl-2-(1-methyl-1H-imidazol-2-yl)-6-(1-methyl-1H-pyrazol-3-yl)pyrrolo[2,1-f][1,2,4]triazin-4-amine], the “% inh of Smad2/3 phosphorylation in Panc-1” value (“% inh” below) in experiment [1] is reported as “C* (C* = 46-75% activation)”. Besides, the IC50 is 1 to 10 nM in experiment [2] (Proliferation assay, MiaPaca-2, read-out: MiaPaca-2 IC50 (nM) Pancreatic) and less than 150 nM in experiment [2] (setting [3]).

Turning to `CO[C@@H]1CC[C@@H](Nc2nc(-c3nccn3C)nn3cc(-c4ccn(C)n4)c(C)c23)C1` (racemic) [Compound 132, rac N-((1R,3R)-3-Methoxycyclopentyl)-5-methyl-2-(1-methyl-1H-imidazol-2-yl)-6-(1-methyl-1H-pyrazol-3-yl)pyrrolo[2,1-f][1,2,4]triazin-4-amine], the “% inh” value in experiment [1] was “A* (A* = 1-25% activation)”. In addition, the IC50 in experiment [2] (setting [3]) is more than 1000 nM.

In the case of `COc1cc(-c2cn3nc(-c4nccn4C)nc(N[C@@H]4CC[C@@H](OC)C4)c3c2C)ccn1` (racemic) [Compound 163, rac N-((1R,3R)-3-Methoxycyclopentyl)-6-(2-methoxypyridin-4-yl)-5-methyl-2-(1-methyl-1H-imidazol-2-yl)pyrrolo[2,1-f][1,2,4]triazin-4-amine], in experiment [1], the “% inh” value was “B (B = 26-45% inhibition)”. Also, the IC50 in experiment [2] (setting [3]) was more than 1000 nM.

Regarding `Cc1c(-c2ccn(C3CC3)n2)cn2nc(-c3nccn3C)nc(Nc3cc(O)ccn3)c12` [Compound 150, 2-((6-(1-Cyclopropyl-1H-pyrazol-3-yl)-5-methyl-2-(1-methyl-1H-imidazol-2-yl)pyrrolo[2,1-f][1,2,4]triazin-4-yl)amino)pyridin-4-ol], the “% inh” value in experiment [1] is “A (A = 1-25% inhibition)”. Besides, the IC50 in experiment [2] (setting [3]) was more than 1000 nM.

Consider `Cc1c(-c2ccn(C)n2)cn2nc(-c3nccn3C)nc(Nc3cc(OC(F)F)ccn3)c12` [Compound 128, N-(4-(Difluoromethoxy)pyridin-2-yl)-5-methyl-2-(1-methyl-1H-imidazol-2-yl)-6-(1-methyl-1H-pyrazol-3-yl)pyrrolo[2,1-f][1,2,4]triazin-4-amine], for which, in experiment [1], the “% inh” value is reported as “A (A = 1-25% inhibition)”. Besides, the IC50 in experiment [2] (setting [3]) was less than 150 nM.

With `COCCO[C@H]1C[C@H](Nc2nc(-c3nccn3C)nn3cc(-c4ccn(C)n4)c(C)c23)C1` [Compound 130, N-((1r,3r)-3-(2-Methoxyethoxy)cyclobutyl)-5-methyl-2-(1-methyl-1H-imidazol-2-yl)-6-(1-methyl-1H-pyrazol-3-yl)pyrrolo[2,1-f][1,2,4]triazin-4-amine], the “% inh” value in experiment [1] was “C (C = 46-75% inhibition)”. In experiment [2] (setting [3]), the IC50 is more than 1000 nM.

Take `Cc1c(-c2ccn(C(C)C)n2)cn2nc(-c3nccn3C)nc(Nc3cc(OCCO)ncn3)c12` [Compound 97, 2-((6-((6-(1-Isopropyl-1H-pyrazol-3-yl)-5-methyl-2-(1-methyl-1H-imidazol-2-yl)pyrrolo[2,1-f][1,2,4]triazin-4-yl)amino)pyrimidin-4-yl)oxy) ethan-1-ol]: the “% inh” value in experiment [1] is “D (D = 76-100% inhibition)”. Also, in experiment [2] (setting [3]), the IC50 was less than 150 nM.

With `COc1ccnc(Nc2nc(-c3nccn3C)nn3cc(-c4ccn(C)n4)c(C)c23)n1.Cl` [Compound 114, N-(4-Methoxypyrimidin-2-yl)-5-methyl-2-(1-methyl-1H-imidazol-2-yl)-6-(1-methyl-1H-pyrazol-3-yl)pyrrolo[2,1-f][1,2,4]triazin-4-amine hydrochloride salt], the “% inh” value in experiment [1] was “D* (D* = 76-100% activation)”. Moreover, in experiment [2] (setting [3]), the IC50 was less than 150 nM.

Regarding `COc1cc(Nc2nc(-c3nccn3C)nn3cc(-c4ccn(C(F)F)n4)c(C)c23)ncn1` [Compound 98, 6-(1-(Difluoromethyl)-1H-pyrazol-3-yl)-N-(6-methoxypyrimidin-4-yl)-5-methyl-2-(1-methyl-1H-imidazol-2-yl)pyrrolo[2,1-f][1,2,4]triazin-4-amine], the “% inh” value in experiment [1] is reported as “D (D = 76-100% inhibition)”. For the same compound, the IC50 in experiment [2] (setting [3]) is less than 150 nM.

Turning to `COc1ccnc(Nc2nc(-c3nccn3C)nn3cc(-c4cccnc4)c(-c4cccnc4)c23)c1` [Compound 169, N-(4-methoxypyridin-2-yl)-2-(1-methyl-1H-imidazol-2-yl)-5,6-di(pyridin-3-yl)pyrrolo[2,1-f][1,2,4]triazin-4-amine], the “% inh” value in experiment [1] is listed as “C (C = 46-75% inhibition)”. Further, in experiment [2] (setting [3]), the IC50 is less than 150 nM.

In the case of `COc1cc(Nc2nc(-c3nccn3C)nn3cc(-c4ccccn4)c(C)c23)ncn1` [Compound 94, N-(6-Methoxypyrimidin-4-yl)-5-methyl-2-(1-methyl-1H-imidazol-2-yl)-6-(pyridin-2-yl)pyrrolo[2,1-f][1,2,4]triazin-4-amine], the “% inh” value in experiment [1] was “B* (B* = 26-45% activation)”. The IC50 in experiment [2] (setting [3]) was less than 150 nM.

On to `CO[C@H]1CC[C@@H](Nc2nc(-c3nccn3C)nn3cc(-c4ccn(C)n4)c(C)c23)C1` (racemic) [Compound 133, rac N-((1R,3S)-3-Methoxycyclopentyl)-5-methyl-2-(1-methyl-1H-imidazol-2-yl)-6-(1-methyl-1H-pyrazol-3-yl)pyrrolo[2,1-f][1,2,4]triazin-4-amine], for which, in experiment [1], the “% inh” value is “A (A = 1-25% inhibition)”. Also, the IC50 in experiment [2] (setting [3]) was more than 1000 nM.

`CO[C@H]1C[C@H](Nc2nc(-c3nccn3C)nn3cc(-c4ccn(C)n4)c(C)c23)C1` [Compound 103, N-((1r,3r)-3-Methoxycyclobutyl)-5-methyl-2-(1-methyl-1H-imidazol-2-yl)-6-(1-methyl-1H-pyrazol-3-yl)pyrrolo[2,1-f][1,2,4]triazin-4-amine hydrochloride salt]: the “% inh” value in experiment [1] was “C* (C* = 46-75% activation)”. Also, the IC50 in experiment [2] (setting [3]) is more than 1000 nM.

As for `Cc1c(-c2ccn(C3CC3)n2)cn2nc(-c3nccn3C)nc(Nc3cc(OC(F)F)ccn3)c12` [Compound 139, 6-(1-Cyclopropyl-1H-pyrazol-3-yl)-N-(4-(difluoromethoxy)pyridin-2-yl)-5-methyl-2-(1-methyl-1H-imidazol-2-yl)pyrrolo[2,1-f][1,2,4]triazin-4-amine], the “% inh” value in experiment [1] is recorded as “A* (A* = 1-25% activation)”. Also, in experiment [2] (setting [3]), the IC50 is less than 150 nM.

`COc1cc(Nc2nc(-c3nccn3C)nn3cc(-c4cccnc4)c(-c4ccccn4)c23)ncn1` [Compound 167, N-(6-Methoxypyrimidin-4-yl)-2-(1-methyl-1H-imidazol-2-yl)-5-(pyridin-2-yl)-6-(pyridin-3-yl)pyrrolo[2,1-f][1,2,4]triazin-4-amine]: the “% inh” value in experiment [1] is listed as 0 (0 = 0% inhibition). For the same compound, in experiment [2] (setting [3]), the IC50 was more than 1000 nM.

As to `Cc1c(-c2ccn(C)n2)cn2nc(-c3nccn3C)nc(Nc3nccn3C)c12` [Compound 106, 5-Methyl-N,2-bis(1-methyl-1H-imidazol-2-yl)-6-(1-methyl-1H-pyrazol-3-yl)pyrrolo[2,1-f][1,2,4]triazin-4-amine], the “% inh” value in experiment [1] is listed as “D* (D* = 76-100% activation)”. Further, the IC50 in experiment [2] (setting [3]) was less than 150 nM.

With `Cc1c(-c2ccn(C3CC3)n2)cn2nc(-c3nccn3C)nc(Nc3cc(N(C)C)ccn3)c12` [Compound 145, N^2-(6-(1-Cyclopropyl-1H-pyrazol-3-yl)-5-methyl-2-(1-methyl-1H-imidazol-2-yl)pyrrolo[2,1-f][1,2,4]triazin-4-yl)-N^4,N^4-dimethylpyridine-2,4-diamine], the “% inh” value in experiment [1] is “B* (B* = 26-45% activation)”. Besides, the IC50 in experiment [2] (setting [3]) was less than 150 nM.

The record behind these values is US12459951B2, “Compounds that interact with RAS superfamily proteins for treatment of cancers, inflammatory diseases, rasopathies, and fibrotic disease” (SHY Therapeutics, LLC, priority 2022, dated 2025).
